From patent publication US20150087627A1, “COMBINATION OF KINASE INHIBITORS AND USES THEREOF” (Intellikine LLC, priority 2011, published 2015)
Where two headings read alike, the source gives them in different places.

Experiments:
Type in all cases: biochemical
[1] = target: T1, PI3K α (p110α/p85α) (Homo sapiens, UniProt P42336); test: PI 3-Kinase (human) HTRF assay, PI3K α; conditions: read-out: PI3K α IC50
T1 construct: purchased Upstate / Millipore Corporation

[2] = target: T2, PI3K β (p110β/p85α) (Homo sapiens, UniProt P42338); test: PI 3-Kinase (human) HTRF assay, PI3K β; conditions: read-out: PI3K β IC50
T2 construct: purchased Upstate / Millipore Corporation
T2 sequence (P42338 whole entry): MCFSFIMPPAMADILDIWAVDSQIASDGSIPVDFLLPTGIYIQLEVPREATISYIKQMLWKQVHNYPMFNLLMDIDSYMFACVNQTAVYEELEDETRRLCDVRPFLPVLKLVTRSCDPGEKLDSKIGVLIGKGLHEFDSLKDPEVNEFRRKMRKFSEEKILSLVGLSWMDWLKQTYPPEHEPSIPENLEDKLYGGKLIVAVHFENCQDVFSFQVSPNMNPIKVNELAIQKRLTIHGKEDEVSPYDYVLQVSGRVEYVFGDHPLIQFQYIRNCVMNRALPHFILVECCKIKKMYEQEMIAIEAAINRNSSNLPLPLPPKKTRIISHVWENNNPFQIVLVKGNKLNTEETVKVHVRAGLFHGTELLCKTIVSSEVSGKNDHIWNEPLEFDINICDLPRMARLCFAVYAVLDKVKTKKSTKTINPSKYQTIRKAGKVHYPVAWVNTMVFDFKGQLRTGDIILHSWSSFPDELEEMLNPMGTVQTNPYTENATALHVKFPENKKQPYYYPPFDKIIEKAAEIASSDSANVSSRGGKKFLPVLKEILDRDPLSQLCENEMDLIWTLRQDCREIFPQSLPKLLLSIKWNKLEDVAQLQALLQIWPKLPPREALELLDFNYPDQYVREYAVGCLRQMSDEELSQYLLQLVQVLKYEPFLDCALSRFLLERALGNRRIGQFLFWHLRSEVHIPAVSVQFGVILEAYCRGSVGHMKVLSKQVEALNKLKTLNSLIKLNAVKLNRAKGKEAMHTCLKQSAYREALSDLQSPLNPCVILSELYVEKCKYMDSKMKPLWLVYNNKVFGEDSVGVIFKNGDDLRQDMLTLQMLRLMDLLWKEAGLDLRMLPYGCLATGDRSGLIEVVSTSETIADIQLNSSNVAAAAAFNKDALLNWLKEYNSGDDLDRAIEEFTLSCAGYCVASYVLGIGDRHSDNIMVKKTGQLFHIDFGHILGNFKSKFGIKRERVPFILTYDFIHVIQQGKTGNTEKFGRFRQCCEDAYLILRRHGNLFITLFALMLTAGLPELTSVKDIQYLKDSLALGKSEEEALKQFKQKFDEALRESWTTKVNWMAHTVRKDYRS
T2 sequence (P27986 whole entry partner): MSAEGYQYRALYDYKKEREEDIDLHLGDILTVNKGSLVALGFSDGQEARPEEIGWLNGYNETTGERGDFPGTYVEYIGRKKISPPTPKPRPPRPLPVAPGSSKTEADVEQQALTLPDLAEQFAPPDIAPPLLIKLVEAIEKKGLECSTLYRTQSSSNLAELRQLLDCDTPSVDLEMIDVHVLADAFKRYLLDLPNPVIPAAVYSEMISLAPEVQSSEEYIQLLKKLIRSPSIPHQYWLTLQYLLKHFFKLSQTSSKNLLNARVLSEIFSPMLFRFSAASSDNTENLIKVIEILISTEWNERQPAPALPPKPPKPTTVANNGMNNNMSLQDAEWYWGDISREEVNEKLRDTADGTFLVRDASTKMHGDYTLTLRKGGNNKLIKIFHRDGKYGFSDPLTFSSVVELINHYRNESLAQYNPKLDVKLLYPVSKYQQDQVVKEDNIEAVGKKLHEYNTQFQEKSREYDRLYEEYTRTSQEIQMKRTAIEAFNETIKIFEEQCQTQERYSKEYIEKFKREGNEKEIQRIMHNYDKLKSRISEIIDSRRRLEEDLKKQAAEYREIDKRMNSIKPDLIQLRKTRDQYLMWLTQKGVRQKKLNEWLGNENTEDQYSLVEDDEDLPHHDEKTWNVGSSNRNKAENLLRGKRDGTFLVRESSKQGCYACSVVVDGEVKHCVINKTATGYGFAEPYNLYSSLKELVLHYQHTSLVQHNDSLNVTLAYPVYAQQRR

[3] = target: T3, PI3K γ (p110γ) (Homo sapiens, UniProt P48736); test: PI 3-Kinase (human) HTRF assay, PI3K γ; conditions: read-out: PI3K γ IC50
T3 construct: purchased Upstate / Millipore Corporation
T3 sequence (P48736 whole entry): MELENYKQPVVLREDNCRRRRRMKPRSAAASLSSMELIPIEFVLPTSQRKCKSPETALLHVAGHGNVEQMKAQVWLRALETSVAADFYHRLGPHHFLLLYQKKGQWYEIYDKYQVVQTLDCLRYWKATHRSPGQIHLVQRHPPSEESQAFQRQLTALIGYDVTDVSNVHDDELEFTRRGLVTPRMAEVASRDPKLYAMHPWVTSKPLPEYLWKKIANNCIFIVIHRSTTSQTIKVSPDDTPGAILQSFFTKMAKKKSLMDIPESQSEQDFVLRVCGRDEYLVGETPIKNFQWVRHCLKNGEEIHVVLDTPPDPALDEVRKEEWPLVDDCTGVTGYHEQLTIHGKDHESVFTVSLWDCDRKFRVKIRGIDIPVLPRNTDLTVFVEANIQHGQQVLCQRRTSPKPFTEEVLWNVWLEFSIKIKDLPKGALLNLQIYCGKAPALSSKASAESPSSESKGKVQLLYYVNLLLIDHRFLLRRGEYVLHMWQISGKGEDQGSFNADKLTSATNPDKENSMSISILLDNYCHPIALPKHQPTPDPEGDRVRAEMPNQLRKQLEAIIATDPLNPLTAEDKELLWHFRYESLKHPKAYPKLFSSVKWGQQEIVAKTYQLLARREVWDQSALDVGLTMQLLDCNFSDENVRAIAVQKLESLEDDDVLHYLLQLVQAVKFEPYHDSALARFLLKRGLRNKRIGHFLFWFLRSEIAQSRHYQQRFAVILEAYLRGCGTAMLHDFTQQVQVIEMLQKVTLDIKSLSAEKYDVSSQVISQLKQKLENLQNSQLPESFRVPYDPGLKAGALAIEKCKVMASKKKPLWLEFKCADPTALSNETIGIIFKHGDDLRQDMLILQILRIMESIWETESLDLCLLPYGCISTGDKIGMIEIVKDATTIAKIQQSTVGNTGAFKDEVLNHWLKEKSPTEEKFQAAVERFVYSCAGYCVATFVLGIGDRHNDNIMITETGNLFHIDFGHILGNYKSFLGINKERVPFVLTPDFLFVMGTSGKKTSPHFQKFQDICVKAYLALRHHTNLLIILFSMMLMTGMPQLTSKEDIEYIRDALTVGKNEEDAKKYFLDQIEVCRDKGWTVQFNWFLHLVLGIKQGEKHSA

[4] = target: T4, PI3K δ (Homo sapiens, UniProt O00329); test: PI 3-Kinase (human) HTRF assay, PI3K δ; conditions: read-out: PI3K δ IC50
T4 construct: purchased Upstate / Millipore Corporation
T4 sequence (O00329 whole entry): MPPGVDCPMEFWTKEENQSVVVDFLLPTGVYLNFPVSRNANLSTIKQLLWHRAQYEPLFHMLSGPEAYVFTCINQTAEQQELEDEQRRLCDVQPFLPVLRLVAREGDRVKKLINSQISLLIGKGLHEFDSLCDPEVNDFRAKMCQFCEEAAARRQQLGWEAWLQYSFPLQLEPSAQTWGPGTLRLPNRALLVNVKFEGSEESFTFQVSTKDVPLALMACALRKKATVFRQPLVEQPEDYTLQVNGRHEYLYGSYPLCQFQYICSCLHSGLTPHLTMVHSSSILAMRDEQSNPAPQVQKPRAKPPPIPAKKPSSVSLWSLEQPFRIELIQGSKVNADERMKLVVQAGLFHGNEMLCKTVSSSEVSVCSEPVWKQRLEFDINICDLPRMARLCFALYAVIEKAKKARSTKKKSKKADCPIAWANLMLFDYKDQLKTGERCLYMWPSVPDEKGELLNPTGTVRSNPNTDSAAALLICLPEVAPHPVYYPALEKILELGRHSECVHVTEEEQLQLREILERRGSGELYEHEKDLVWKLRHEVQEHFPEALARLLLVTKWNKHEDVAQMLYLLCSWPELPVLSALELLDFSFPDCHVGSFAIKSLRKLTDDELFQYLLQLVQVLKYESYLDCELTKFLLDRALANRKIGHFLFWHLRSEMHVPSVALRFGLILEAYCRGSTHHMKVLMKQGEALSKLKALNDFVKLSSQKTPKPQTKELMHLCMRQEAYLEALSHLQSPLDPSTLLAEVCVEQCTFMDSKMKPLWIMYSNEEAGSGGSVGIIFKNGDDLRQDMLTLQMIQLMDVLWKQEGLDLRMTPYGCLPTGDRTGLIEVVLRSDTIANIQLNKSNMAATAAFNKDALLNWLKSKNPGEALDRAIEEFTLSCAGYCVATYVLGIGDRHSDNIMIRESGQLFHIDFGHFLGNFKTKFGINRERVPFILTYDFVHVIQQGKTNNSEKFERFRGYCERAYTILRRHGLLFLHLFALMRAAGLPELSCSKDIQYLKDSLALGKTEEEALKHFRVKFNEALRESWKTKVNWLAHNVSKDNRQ
T4 sequence (P27986 whole entry partner): as the sequence (P27986 whole entry partner) above

T1 sequence (P42336 whole entry): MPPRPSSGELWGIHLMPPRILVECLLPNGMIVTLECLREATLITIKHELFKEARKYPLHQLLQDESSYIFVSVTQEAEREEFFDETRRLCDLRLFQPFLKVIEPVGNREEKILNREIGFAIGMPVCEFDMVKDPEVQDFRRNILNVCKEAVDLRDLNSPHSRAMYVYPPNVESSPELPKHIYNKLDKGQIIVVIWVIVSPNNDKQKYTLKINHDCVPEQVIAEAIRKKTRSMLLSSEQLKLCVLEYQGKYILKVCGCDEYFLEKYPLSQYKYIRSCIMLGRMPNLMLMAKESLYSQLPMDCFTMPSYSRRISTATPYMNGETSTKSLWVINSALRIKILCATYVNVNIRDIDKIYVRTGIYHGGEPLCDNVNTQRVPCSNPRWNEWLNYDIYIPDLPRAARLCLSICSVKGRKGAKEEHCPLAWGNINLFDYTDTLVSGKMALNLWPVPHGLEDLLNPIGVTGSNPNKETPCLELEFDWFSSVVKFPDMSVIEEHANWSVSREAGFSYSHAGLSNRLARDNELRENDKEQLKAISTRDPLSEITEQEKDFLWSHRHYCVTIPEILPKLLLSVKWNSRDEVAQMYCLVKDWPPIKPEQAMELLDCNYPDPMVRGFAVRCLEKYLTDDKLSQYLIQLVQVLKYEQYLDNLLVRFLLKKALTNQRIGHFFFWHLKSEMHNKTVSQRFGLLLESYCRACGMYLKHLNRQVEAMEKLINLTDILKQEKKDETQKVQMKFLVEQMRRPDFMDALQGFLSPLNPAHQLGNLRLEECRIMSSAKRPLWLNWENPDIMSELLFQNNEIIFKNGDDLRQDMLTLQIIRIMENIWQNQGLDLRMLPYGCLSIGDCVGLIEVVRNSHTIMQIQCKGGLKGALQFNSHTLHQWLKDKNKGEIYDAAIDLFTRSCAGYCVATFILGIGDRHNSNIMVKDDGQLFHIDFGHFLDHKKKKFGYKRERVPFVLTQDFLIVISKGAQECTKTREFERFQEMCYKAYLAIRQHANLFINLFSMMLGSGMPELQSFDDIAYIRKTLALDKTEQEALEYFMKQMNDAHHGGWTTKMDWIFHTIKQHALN
T1 sequence (P27986 whole entry partner): as the sequence (P27986 whole entry partner) above

IC50 [1] [µM] | IC50 [2] [µM] | IC50 [3] [µM] | IC50 [4] [µM] | IC50 ([1]; Table 4 (PI3K α inhibitors)) [µM] | SMILES | IC50 ([2]; Table 4 (PI3K α inhibitors)) [µM] | IC50 ([3]; Table 4 (PI3K α inhibitors)) [µM] | IC50 ([4]; Table 4 (PI3K α inhibitors)) [µM]
< 0.1 | < 10 | < 10 | < 10 | – | Cc1cn(C2CCN(c3cnc4ccc(-c5ccc6oc(N)nc6c5)cc4n3)CC2)cn1 [Compound 338] | – | – | –
< 1 | < 10 | < 1 | > 10 | – | Nc1nc2cc(-c3ccc4ncn(CCN5CCOCC5)c(=O)c4c3)ccc2o1 [Compound 289] | – | – | –
< 1 | < 10 | < 10 | > 10 | – | COCCn1cnc2ccc(-c3ccc4oc(N)nc4c3)cc2c1=O [Compound 272] | – | – | –
< 0.1 | < 10 | < 1 | < 1 | – | CC(C)N1CCN(C(=O)C2CN(c3cnc4ccc(-c5ccc6oc(N)nc6c5)cc4n3)C2)CC1 [Compound 285] | – | – | –
< 1 | > 10 | > 10 | > 10 | – | O=C(c1cnc2ccc(-c3cnc(Cl)c4[nH]ncc34)cn12)N1CCOCC1 [Compound 516] | – | – | –
< 1 | > 10 | > 10 | > 10 | – | Cc1nc(NC(=O)N2CCC[C@H]2C(N)=O)sc1-c1ccc2oc(N)nc2c1 [Compound 311] | – | – | –
< 1 | < 1 | < 10 | < 1 | – | CCN(CC)CCNc1cnc2ccc(-c3ccc4oc(N)nc4c3)cc2n1 [Compound 218] | – | – | –
< 1 | > 10 | > 10 | > 10 | – | Nc1ncc(-c2cnc3ccc(-c4ccc5oc(N)nc5c4)cc3n2)cn1 [Compound 210] | – | – | –
< 0.1 | > 10 | < 10 | > 10 | – | Nc1nc2cc(-c3ccc4ncc(C(=O)N5CCN(CCO)CC5)n4c3)ccc2o1 [Compound 148] | – | – | –
< 0.1 | > 10 | < 0.1 | > 10 | – | Nc1nc2cc(-c3ccc4ncc(N5CCS(=O)(=O)CC5)nc4c3)ccc2o1 [Compound 98] | – | – | –
< 10 | > 10 | < 10 | < 10 | – | O=C(c1cnc2ccc(-c3cccc(NS(=O)(=O)c4ccc(F)cc4F)c3)cn12)N1CCOCC1 [Compound 454] | – | – | –
– | – | – | – | < 0.1 | Nc1nc2cc(-c3ccc4ncc(N5CCN(C(=O)C6(N)CC6)CC5)cc4n3)ccc2o1 [Compound 593] | < 1 | < 0.1 | < 1
< 1 | < 10 | < 1 | > 10 | – | Nc1nc2cc(-c3ccc4ncc(C(=O)N5CCOCC5)n4c3)ccc2s1 [Compound 126] | – | – | –
– | > 10 | > 10 | > 10 | – | Cc1ncc(-c2ccc3ncc(C(=O)N4CCOCC4)n3c2)c2cc[nH]c12 [Compound 536] | – | – | –
< 1 | < 10 | > 10 | > 10 | – | CN1CCCN(C(=O)c2cnc3ccc(-c4ccc5oc(N)nc5c4)cn23)CC1 [Compound 140] | – | – | –
> 10 | > 10 | > 10 | > 10 | – | Nc1nc2ccc(-c3ccc4nc(N)oc4c3)cc2o1 [Compound 246] | – | – | –

IC50 [1] [µM] | IC50 [2] [µM] | IC50 [3] [µM] | IC50 [4] [µM] | IC50 ([1]; Table 4 (PI3K α inhibitors)) [µM] | SMILES | IC50 ([2]; Table 4 (PI3K α inhibitors)) [µM] | IC50 ([3]; Table 4 (PI3K α inhibitors)) [µM] | IC50 ([4]; Table 4 (PI3K α inhibitors)) [µM]
< 0.1 | > 10 | < 1 | < 10 | – | Nc1nc2cc(-c3ccc4ncc(C(=O)N5CC(N6CCC(F)(F)C6)C5)n4c3)ccc2o1 [Compound 502] | – | – | –
< 0.1 | < 1 | < 1 | > 10 | – | Nc1nc2ccc(-c3ccc4ncc(N5CCOCC5)nc4c3)cc2o1 [Compound 117] | – | – | –
< 0.1 | < 10 | < 0.1 | < 0.1 | – | CS(=O)(=O)N1CCC(Nc2cnc3ccc(-c4ccc5oc(N)nc5c4)cc3n2)CC1 [Compound 95] | – | – | –
< 0.1 | < 1 | < 1 | < 0.1 | – | Nc1nc2cc(-c3ccc4ncc(C(=O)NCCCN5CCCC5)n4c3)ccc2o1 [Compound 293] | – | – | –
< 1 | > 10 | < 10 | > 10 | – | Nc1nc2cc(-c3ccc4ncc(C(=O)N5CCC(O)CC5)n4c3)ccc2o1 [Compound 162] | – | – | –
< 1 | < 10 | < 10 | < 10 | – | Nc1nc2cc(-c3ccc4ncc(C(=O)N5CCC(N6CCOCC6)CC5)n4c3)ccc2o1 [Compound 163] | – | – | –
< 0.1 | < 0.1 | < 0.1 | < 0.1 | – | O=C(c1cnc2ccc(-c3cnc(Cl)c(NS(=O)(=O)c4ccc(F)cc4)c3)cn12)N1CCOCC1 [Compound 457] | – | – | –
< 1 | < 10 | < 10 | < 10 | – | Nc1nc2cc(-c3ccc4ncc(N5CC(N6CCCC6)C5)nc4c3)ccc2o1 [Compound 314] | – | – | –
< 10 | > 10 | > 10 | > 10 | – | O=C(c1cnc2ccc(-c3cnc4cn[nH]c4c3)cn12)N1CCOCC1 [Compound 535] | – | – | –
< 10 | < 1 | < 1 | < 10 | – | Nc1nc2ccc(-c3ccc4nnc(-c5ccncc5)n4c3)cc2o1 [Compound 230] | – | – | –
– | > 10 | > 10 | > 10 | – | O=C(c1cnc2ccc(-c3cnc4cc[nH]c4c3)cn12)N1CCOCC1 [Compound 534] | – | – | –
– | > 10 | > 10 | > 10 | – | O=C(c1cnc2ccc(-c3ccnc4[nH]ncc34)cn12)N1CCOCC1 [Compound 532] | – | – | –
– | – | – | – | – | CC(C)N1CCN(C2CN(c3cnc4ccc(-c5ccc6oc(N)nc6c5)nc4n3)C2)CC1 [Compound 628] | > 10 | > 10 | > 10
– | < 10 | < 10 | < 10 | – | O=C(c1cnc2ccc(-c3cnc4[nH]ncc4c3)cn12)N1CCOCC1 [Compound 492] | – | – | –
< 0.1 | < 1 | < 10 | – | – | CN1CCN([C@H]2CCN(c3cnc4ccc(-c5ccc6oc(N)nc6c5)cc4n3)C2)CC1 [Compound 381] | – | – | –

SMILES | IC50 [1] [µM] | IC50 [2] [µM] | IC50 [3] [µM] | IC50 [4] [µM] | IC50 ([1]; Table 4 (PI3K α inhibitors)) [µM] | IC50 ([2]; Table 4 (PI3K α inhibitors)) [µM] | IC50 ([3]; Table 4 (PI3K α inhibitors)) [µM] | IC50 ([4]; Table 4 (PI3K α inhibitors)) [µM]
Nc1nc2cc(-c3ccc4ncc(C(=O)N5CC6CCC(C5)O6)n4c3)ccc2o1 [Compound 504] | < 1 | < 10 | < 0.1 | > 10 | – | – | – | –
C[C@H]1CN(c2cnc3ccc(-c4cccc5c(N)noc45)cc3n2)CCN1 [Compound 363] | > 10 | > 10 | > 10 | > 10 | – | – | – | –
COc1ccc(-c2ccc3ncc(C(=O)N4CCOCC4)n3c2)cc1NS(C)(=O)=O [Compound 456] | > 10 | > 10 | > 10 | > 10 | – | – | – | –
CN(C)CC(=O)N1CCN(c2cnc3ccc(-c4ccc5oc(N)nc5c4)cc3n2)CC1 [Compound 217] | < 0.1 | < 1 | < 1 | < 1 | – | – | – | –
NCC(=O)N1CCN(c2cnc3ccc(-c4ccc5oc(N)nc5c4)cc3n2)CC1 [Compound 192] | < 0.1 | < 1 | < 1 | < 1 | – | – | – | –
Nc1nc2cc(-c3ccc4ncc(-c5cnn(CCO)c5)nc4c3)ccc2o1 [Compound 108] | < 0.1 | < 10 | < 0.1 | > 10 | – | – | – | –
Nc1nsc2ccc(-c3ccc4nccc(-c5ccncc5)c4c3)cc12 [Compound 12] | > 10 | > 10 | > 10 | > 10 | – | – | – | –
